Measured values as given in US20050220779A1, “Integrin linked kinase modulation of macrophage activation” (priority 2001, published 2005).

Tests used:
[1] = biological target: T1, integrin linked kinase (full-length recombinant GST-ILK) (Homo sapiens, UniProt Q13418); test: ILK kinase inhibition assay (phosphocellulose filter, scintillation counting); type: biochemical
T1 construct: The target integrin linked kinase is a full-length recombinant protein expressed in sF9 insect cells; made in house; host or cells: baculovirus; virus amplified in Sf9, protein expressed in Hi5 insect cells
T1 sequence (Q13418 1-452): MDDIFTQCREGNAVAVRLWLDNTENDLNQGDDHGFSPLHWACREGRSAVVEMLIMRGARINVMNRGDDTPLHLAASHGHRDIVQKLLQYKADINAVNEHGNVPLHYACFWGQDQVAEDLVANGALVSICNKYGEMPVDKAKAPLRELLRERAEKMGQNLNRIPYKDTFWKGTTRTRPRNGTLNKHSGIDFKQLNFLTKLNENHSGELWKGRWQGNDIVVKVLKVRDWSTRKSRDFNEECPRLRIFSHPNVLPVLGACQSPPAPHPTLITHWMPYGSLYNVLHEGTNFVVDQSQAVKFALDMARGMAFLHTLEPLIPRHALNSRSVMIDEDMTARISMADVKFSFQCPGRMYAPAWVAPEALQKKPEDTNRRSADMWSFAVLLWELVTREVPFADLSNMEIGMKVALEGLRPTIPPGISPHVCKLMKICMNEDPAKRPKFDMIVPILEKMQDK
Experimental: Inhibition Assay: Compounds were received in lyophilized form and stored at −20° C. Stock solutions were made by weighing out the compounds and dissolving them in dimethyl sulfoxide (DMSO) to a standard concentration, usually 20 mM, and stored at −20° C. […] Diluted 100% DMSO was used as a negative control.
5 μl of each compound dilution were robotically pipetted to Costar serocluster plates maintaining the same plate format. All assays consisted of the following volumes: • 5 μl diluted compound • 10 μl enzyme preparation • 5 μl substrate • 5 μl assay ATP and were then incubated 15 min at room temperature.
From each reaction, 10 μl of reaction mix was spotted onto Millipore Multiscreen-PH opaque plates and washed 2×10 min in 1% phosphoric acid. The plates were dried for at 40° C. for 30 min, then the substrate phosphate complexes were quantitated by scintillation counting. These Millipore plates are in a 96 well format with immobilized P81 phosphocellulose membranes. Both the phosphorylated and non-phosphorylated form of the substrate bind to the membrane while ATP (unincorporated phosphate) is removed in the subsequent wash steps.
Integrin Linked Kinase: The target integrin linked kinase is a full-length recombinant protein expressed in sF9 insect cells by baculovirus infection. The ILK1 substrate is […]-amide.
Recombinant ILK protein was expressed using cultured insect cells and a baculovirus expression system.
A large scale plasmid preparation of the resulting transfer construct was made using a Qiagen Plasmid Midi Kit. This ILK transfer construct was then co-transfected with BaculoGold DNA (Pharmingen) into Sf9 insect cells (Invitrogen) and a high titre preparation of GST-ILK recombinant baculovirus was produced by amplification in Sf9 cells. Liter scale expression of GST-ILK recombinant protein was done in 1000 ml spinner flasks (Bellco) by infection of Hi5 insect cells (invitrogen) grown in Ex-Cell 400 Serum Free Media (JRH Biosciences) at a multiplicity of infection of approximately 5. The cells were harvested three days after infection and lysed in Hypotonic Lysis Buffer (HLB; 10 mM imidazole, 5 mM EDTA, 0.1% β-mercaptoethanol, 10 ug/ml PMSF, 1 mM benzamidine) by sonication. The lysate was centrifuged at 10,000×g for 20 min and the supernatant was discarded. The pellet was washed twice in HLB and then washed twice in High Salt Buffer (HSB; 500 mM NaCl, 10 mM imidazole, 5 mM EDTA, 0.1% β-mercaptoethanol, 10 ug/mI PMSF, 1 mM benzamidine). The pellet was then resuspended in DNAse-ATP Buffer (DAB; 10 mM MgCl2, 1 mM MnCl2, β-methyl aspartic acid, 2 mM NaF, 0.55 mg/ml ATP, 1 ug/ml DNAse l, 1% NP-40, 10 mM imidazole, 5 mM EDTA, 0.1% β-mercaptoethanol, 10 ug/ml PMSF, 1 mM benzamidine) and stirred for 30 min at room temperature, and then centrifuged at 10,000×g for 20 min. The pellet was resuspended in High Salt Detergent buffer (HDB; 1% NP-40, 1% Triton X-100, 500 mM NaCl, 10 mM imidazole, 5 mM EDTA, 0.1% β-mercaptoethanol, 10 ug/ml PMSF, 1 mM benzamidine), stirred for 30 min at room temperature, and then centrufuged at 10,000×g for 20 min. The pellet was then washed once in each of HDB, HSB, and HLB, centrifuging at 10,000×g each time. Finally, the pellet was resuspended in HLB.

[2] = tested on: C57BL/6 cells (primary peritoneal macrophages); test: Cell survival by crystal violet staining, C57BL/6 cells; type: cell-based; details: 50 μM, 24 h, DMSO-treated = 100%
Experimental: Treatment of primary macrophages and RAW 264.7 cells. […] Following 3 h incubation, at 37 C, 5% CO2 (macrophages were allowed to attach) cells were stimulated with LPS (0.5 μg/ml) and IFN-γ (100 U/ml) in the absence or presence of various concentrations of ILK inhibitors (all treatments were replicated six times). Cells were incubated for an additional 24 h, and cell free culture supernatants from each well were collected for NO and cytokine determination. The remaining cells were stained with crystal violet to determine effect of the inhibitors on cell survival.
Effect of ILK Inhibitors on suppression of NO production and cell survival. Twenty-four hours following treatment with the ILK inhibitors, aliquots from the cell-free supernatants were assayed for NO and IL-6 release. Surviving cells were stained and fixed (crystal violet 0.05% in 20% ethanol), to determine if the decrease in NO production was related to a decrease in cell number due to toxicity of the compounds.

Row | Compound | inhibition at 0.1 µM ([1]; 0.1 μM, corrected against the maximum observed inhibition) [%] | inhibition at 0.3 µM ([1]; 0.3 μM, corrected against the maximum observed inhibition) [%] | inhibition at 0.7 µM ([1]; 0.7 μM, corrected against the maximum observed inhibition) [%] | inhibition at 1.6 µM ([1]; 1.6 μM, corrected against the maximum observed inhibition) [%] | inhibition at 4.1 µM ([1]; 4.1 μM, corrected against the maximum observed inhibition) [%] | inhibition at 10.2 µM ([1]; 10.2 μM, corrected against the maximum observed inhibition) [%] | inhibition at 25.6 µM ([1]; 25.6 μM, corrected against the maximum observed inhibition) [%] | inhibition at 64 µM ([1]; 64.0 μM, corrected against the maximum observed inhibition) [%] | inhibition at 160 µM ([1]; 160.0 μM, corrected against the maximum observed inhibition) [%] | inhibition at 400 µM ([1]; 400.0 μM, corrected against the maximum observed inhibition) [%] | Survival (%) [2] [%] | inhibits ILK at [1] [µM]
1 | N=C(N)N/N=C/c1ccc(Cl)cc1Cl [KP-16735] | 13 | -1 | 4 | 18 | 32 | 69 | 85 | 99 | 102 | 99 | 49 | 
2 | Oc1ccc2c(c1)CC1NCCc3cc(O)c(O)c-2c31 (stereo not shown) [KP-21849, 5,6,6a,7-Tetrahydro-4H-dibenzo[de,g]quinoline-1,2,9-triol] |  |  |  |  |  |  |  |  |  |  | 44 | 2
